Results taken from the NIST ThermoML archive (doi:10.1021/je5009729).
± gives the expanded uncertainty stated by the source. Blank lines part the entries; values can stand above or below the molecule they belong to.

Legend:
[1] = for vapor or sublimation pressure: Gas chromatography; for Normal melting temperature / Triple point temperature: DTA
[2] = Molar enthalpy of transition or fusion; conditions: DSC

vapor or sublimation pressure ([1]; 298.15 K, Liquid): 6.5e-10 kPa
SMILES: CCCCCC=CCC=CCC=CCC=CCCCC(=O)O [5,8,11,14-eicosatetraenoic acid]

vapor or sublimation pressure ([1]; 298.15 K, Liquid): 1.18e-09 kPa
SMILES: CCCCCCCC/C=C\CCCCCCCCCC(=O)O [(11Z)-eicosenoic acid]

vapor or sublimation pressure ([1]; 298.15 K, Liquid): 1.13e-08 kPa
SMILES: CCCCCCCCCCC/C=C\CCCCC(=O)O [(Z)-6-octadecenoic acid]

vapor or sublimation pressure ([1]; 298.15 K, Liquid): 1.01e-08 kPa
SMILES: CCCCCCCC/C=C\CCCCCCCC(=O)O [(Z)-9-octadecenoic acid]

vapor or sublimation pressure ([1]; 298 K, Crystal): 2.7e-12 kPa | vapor or sublimation pressure ([1]; 298.15 K, Liquid): 1e-11 kPa | Normal melting temperature ([1]; Crystal): 42 ± 1 °C | Molar enthalpy of transition or fusion ([2]; Crystal): 14.4 ± 0.359 kcal/mol
SMILES: CCCCCCCC/C=C\CCCCCCCCCCCCCC(=O)O [(Z)-tetracos-15-enoic acid]

vapor or sublimation pressure ([1]; 298.15 K, Liquid): 2.2e-11 kPa
SMILES: CC/C=C\C/C=C\C/C=C\C/C=C\C/C=C\C/C=C\CCC(=O)O [cis-4,7,10,13,16,19-docosahexaenoic acid]

vapor or sublimation pressure ([1]; 298.15 K, Liquid): 6.9e-08 kPa
SMILES: CCCCCC/C=C\CCCCCCCC(=O)O [cis-9-hexadecenoic acid]

vapor or sublimation pressure ([1]; 298.15 K, Crystal): 8e-15 kPa | vapor or sublimation pressure ([1]; 298.15 K, Liquid): 2.5e-12 kPa | Normal melting temperature ([1]; Crystal 1): 85.7 ± 0.7 °C | Triple point temperature ([1]; Crystal 2): 354.3 ± 0.5 K | Molar enthalpy of transition or fusion ([2]; Crystal 2): 21.2 ± 0.621 kcal/mol
SMILES: CCCCCCCCCCCCCCCCCCCCCCCCCC(=O)O [hexacosanoic acid]

vapor or sublimation pressure ([1]; 298 K, Crystal): 4e-14 kPa | vapor or sublimation pressure ([1]; 298.15 K, Liquid): 1.1e-11 kPa | Normal melting temperature ([1]; Crystal 1): 83.4 ± 0.5 °C | Triple point temperature ([1]; Crystal 2): 351 ± 1 K | Triple point temperature ([1]; Crystal 3): 347 ± 1 K | Molar enthalpy of transition or fusion ([2]; Crystal 1): 20.2 ± 0.454 kcal/mol | Molar enthalpy of transition or fusion ([2]; Crystal 3): 1.18 ± 0.0621 kcal/mol
SMILES: CCCCCCCCCCCCCCCCCCCCCCCC(=O)O [lignoceric acid]
